{
  "source": "patent US7834005B2",
  "about": "“Pyrrolobenzodiazepine derivatives, compositions comprising the same and methods related thereto” (The United States of America as represented by the …, priority 2003, dated 2010)",
  "key": {"[1]": {"test_system": "standard panel of 12 tumor cell lines", "assay": "hollow fiber assay", "format": "in vivo, mice", "description": "A standard panel of 12 tumor cell lines was used for the routine hollow fiber screening. These included NCI-H23, NCI-H522, MDA-MB-231, MDA-MB-435, SW-620, COLO 205, LOX, UACC-62, OVCAR-3, OVCAR-5, U251 and SF-295. In addition, alternate lines were used for specialized testing of compounds on a nonroutine basis. The cell lines were cultivated in RPMI-1640 containing 10% FBS and 2 mM glutamine. On the day preceeding hollow fiber preparation, the cells were given a supplementation of fresh medium to maintain log phase growth. For fiber preparation, the cells were harvested by standard trypsinization technique and resuspended at the desired cell density ((2-10×10^6 cells/ml). The cell suspension was flushed into 1 mm (internal diameter) polyvinylidene fluoride hollow fibers with a molecular weight exclusion of 500,000 Da. The hollow fibers were heat-sealed at 2 cm intervals and the samples generated from these seals were placed into tissue culture medium and incubated at 37° C. in 5% CO2 for 24 to 48 hours prior to implantation. A total of 3 different tumor lines were prepared for each experiment so that each mouse receives 3 intraperitoneal implants (1 of each tumor line) and 3 subcutaneous implants (1 of each tumor line). On the day of implantation, samples of each tumor cell line preparation were quantitated for viable cell mass by a stable endpoint MTT assay so that the time zero cell mass is known. Mice were treated with experimental agents starting on day 3 or 4 following fiber implantation and continuing daily for 4 days. Each agent was administered by intraperitoneal injection at 2 dose levels. The fibers were collected from the mice on the day following the fourth compound treatment and subjected to the stable endpoint MTT assay. The optical density of each sample was determined spectrophotometrically at 540 nm and the mean of each treatment group was calculated. The percent net growth for each cell line in each treatment group was calculated and compared to the percent net growth in the vehicle treated controls. A 50% or greater reduction in percent net growth in the treated samples compared to the vehicle control samples was considered a positive result. Each positive result was given a score of 2 and all of the scores were totaled for a given compound. The maximum possible score for an agent is 96 (12 cell lines×2 sites×2 dose levels×2 [score])."}, "[2]": {"assay": "in vivo efficacy, UACC-62 (melanoma) subcutaneous tumor model", "design": "species or system athymic mice", "settings": "athymic, mouse, in vivo, UACC-62, Early-SC", "description": "(§1) NSC 694501 was evaluated for in vivo efficacy in athymic mice bearing 8 subcutaneous tumor models: LOX and UACC-62 (melanoma), OVCAR-3 and OVCAR-5 (ovarian ca), MDA-MB-435 (breastca), SF-295 and C-6 (glioma), and LS-174T (colonca). The models were selected on the basis of hollow fiber assays and in vitro time course assays.\n(§2) A qDx5 schedule conferred better efficacy than a q4Dx3 schedule in each of the 4 models tested on two schedules. NSC 694501 was active over a wide dosage range in athymic mice using compound prepared fresh just prior to injection in 1% EtOH vehicle: On a qDx5 schedule, the maximum tolerated dose was approximately 120 μg/kg/dose and the minimum effective dose in one of the most sensitive models (SF-295) was 16 μg/kg/dose."}, "UACC-62 (melanoma)": {"test_system": "UACC-62 (melanoma)", "assay": "in vivo efficacy, UACC-62 (melanoma) subcutaneous tumor model", "design": "species or system athymic mice", "settings": "UACC-62, Early-SC, intravenous", "description": "as §1, §2"}, "[3]": {"test_system": "LS-174 (human colon cancer)", "assay": "in vivo efficacy, LS-174 (human colon cancer) in nude rats", "settings": "i.v.; for BW Loss / Growth Delay % [(T − C)/C] / Optimal % T/C: LS-174, Early-SC, nude rats"}, "[4]": {"assay": "in vivo efficacy, summary over 8 subcutaneous tumor models", "design": "species or system athymic mice", "settings": "mouse, in vivo, intravenous; athymic mice, qDx5 schedule, prepared fresh in 1% EtOH vehicle; read-out: maximum tolerated dose", "description": "as §1, §2"}, "[5]": {"test_system": "8 subcutaneous tumor models", "assay": "in vivo efficacy, summary over 8 subcutaneous tumor models", "design": "species or system athymic mice", "description": "as §1, §2"}},
  "data": [
    {"molecule": "C=C1C[C@H]2C=Nc3cc(OCCCOc4cc5c(cc4OC)C(=O)N4CC(=C)C[C@H]4C=N5)c(OC)cc3C(=O)N2C1", "note": "[NSC 694501]", "values": [
      {"measurement": "cell lines killed", "setting": "[1]; hollow fiber assay", "value": "three cell lines killed: UACC-62 melanoma, OVCAR-3 ovarian cancer, and MDA-MB-435 breast cancer"},
      {"measurement": "hollow fiber assay score, intraperitoneal [i.p.]", "setting": "[1]; intraperitoneal implants", "value": 40},
      {"measurement": "hollow fiber assay total score", "setting": "[1]; ip + sc, maximum possible score 96", "value": 54},
      {"measurement": "hollow fiber assay score, subcutaneous [s.c.]", "setting": "[1]; subcutaneous implants", "value": 14},
      {"measurement": "MTD at 9 days", "setting": "[2]; Q4D X3, intravenous", "value": 0.45, "unit": "mg/kg"},
      {"measurement": "MTD at 5 days", "setting": "[2]; QD X5, intravenous", "value": 0.054, "unit": "mg/kg"},
      {"measurement": "BW Loss", "setting": "UACC-62 (melanoma); Q4D X3, .45 mg/kg/dose", "value": 20.9, "unit": "%"},
      {"measurement": "Growth Delay % [(T − C)/C]", "setting": "UACC-62 (melanoma); Q4D X3, .45 mg/kg/dose", "value": 43, "unit": "%"},
      {"measurement": "Optimal % T/C", "setting": "UACC-62 (melanoma); Q4D X3, .45 mg/kg/dose", "value": 28, "unit": "%"},
      {"measurement": "BW Loss", "setting": "UACC-62 (melanoma); QD X5, 0.054 mg/kg/dose", "value": 20.2, "unit": "%"},
      {"measurement": "Growth Delay % [(T − C)/C]", "setting": "UACC-62 (melanoma); QD X5, 0.054 mg/kg/dose", "value": 150, "unit": "%"},
      {"measurement": "Optimal % T/C", "setting": "UACC-62 (melanoma); QD X5, 0.054 mg/kg/dose", "value": 26, "unit": "%"},
      {"measurement": "value in parentheses in Growth Delay column", "setting": "UACC-62 (melanoma); QD X5, 0.054 mg/kg/dose", "value": 0.9, "unit": "L"},
      {"measurement": "BW Loss", "setting": "[3]; QD X5, 0.018 mg/kg", "value": 0.0, "unit": "%"},
      {"measurement": "Growth Delay % [(T − C)/C]", "setting": "[3]; QD X5, 0.018 mg/kg", "value": 43, "unit": "%"},
      {"measurement": "Optimal % T/C", "setting": "[3]; QD X5, 0.018 mg/kg", "value": 41, "unit": "%"},
      {"measurement": "BW Loss", "setting": "[3]; QD X5, 0.027 mg/kg", "value": 2.2, "unit": "%"},
      {"measurement": "Growth Delay % [(T − C)/C]", "setting": "[3]; QD X5, 0.027 mg/kg", "value": 93, "unit": "%"},
      {"measurement": "Optimal % T/C", "setting": "[3]; QD X5, 0.027 mg/kg", "value": 21, "unit": "%"},
      {"measurement": "BW Loss", "setting": "[3]; QD X5, 0.040 mg/kg", "value": 1.4, "unit": "%"},
      {"measurement": "Growth Delay % [(T − C)/C]", "setting": "[3]; QD X5, 0.040 mg/kg", "value": 83, "unit": "%"},
      {"measurement": "Optimal % T/C", "setting": "[3]; QD X5, 0.040 mg/kg", "value": 17, "unit": "%"},
      {"measurement": "tolerability and efficacy", "setting": "[3]; nude rats bearing LS-174, 27 and 40 μg/kg/dose, qDx5", "value": "well tolerated and efficacious"},
      {"measurement": "MTD at 5 days", "setting": "[4]", "value": "~0.12", "unit": "mg/kg"},
      {"measurement": "cell kill", "setting": "[5]; i.v bolus", "value": "multi-log cell kill in 4 models"},
      {"measurement": "growth delays", "setting": "[5]; i.v bolus", "value": "significant growth delays in 7 models"},
      {"measurement": "activity in tumor models", "setting": "[5]; i.v bolus drug delivery", "value": "active in each of the 8 tumor models"}
    ]}
  ]
}
